The subject of the experiment is HCT116 colorectal cancer cells. The experiment in a line: Cisplatin sensitization assay (96 h cell viability MTS).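 Further: Test-compound concentration that lowers the Cisplatin IC50 by a set fold.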 In kind it is cell-based. As to conditions: compound and Cisplatin added simultaneously, Cisplatin sensitization value. The procedure, abridged: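 Viability read by MTS (1 h at 37° C) after 96 h co-exposure at 37° C, 5% CO2. Test compound and cisplatin were dosed simultaneously in a full concentration matrix, each 2-fold serially diluted from 10 μM final; sensitization values binned in μM.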
In the case of `Nc1nn2cc(Cl)cnc2c1C(=O)Nc1cnccc1O[C@@H]1CCOC1` [I-O-54, (R)-2-amino-6-chloro-N-(4-((tetrahydrofuran-3-yl)oxy)pyridin-3-yl)pyrazolo[1,5-a]pyrimidine-3-carboxamide], the “Cisplatin Sensitization Assay” value is recorded as “+++ (Cisplatin sensitization value of <0.02 μM)”.
Under `C[C@H]1CN(C(=O)C2CCN(c3c(F)cncc3NC(=O)c3c(N)nn4cc(F)cnc34)CC2)CCN1` [I-G-61, (S)-2-amino-6-fluoro-N-(5-fluoro-4-(4-(3-methylpiperazine-1-carbonyl)piperidin-1-yl)pyridin-3-yl)pyrazolo[1,5-a]pyrimidine-3-carboxamide] stands “+++ (Cisplatin sensitization value of <0.02 μM)”; under `CNC1CN(C(=O)C2CCN(c3c(F)cncc3NC(=O)c3c(N)nn4cc(F)cnc34)CC2)C1` [I-G-34, 2-amino-6-fluoro-N-(5-fluoro-4-(4-(3-(methylamino)azetidine-1-carbonyl)piperidin-1-yl)pyridin-3-yl)pyrazolo[1,5-a]pyrimidine-3-carboxamide], “+++ (Cisplatin sensitization value of <0.02 μM)”; under `N#CC1CN(C(=O)C2CCN(c3c(F)cncc3NC(=O)c3c(N)nn4cc(F)cnc34)CC2)C1` [I-G-76, 2-amino-N-(4-(4-(3-cyanoazetidine-1-carbonyl)piperidin-1-yl)-5-fluoropyridin-3-yl)-6-fluoropyrazolo[1,5-a]pyrimidine-3-carboxamide], “+++ (Cisplatin sensitization value of <0.02 μM)”.
The value for `COC1CCN(c2ccncc2NC(=O)c2c(N)nn3cc(F)cnc23)CC1` [I-N-266, 2-amino-6-fluoro-N-(4-(4-methoxypiperidin-1-yl)pyridin-3-yl)pyrazolo[1,5-a]pyrimidine-3-carboxamide] was “+++ (Cisplatin sensitization value of <0.02 μM)”.

These data come from patent US11370798B2 (Vertex Pharmaceuticals Incorporated, priority 2012, dated 2022).
